The text below walks through data of patent US9616010B2, “Cosmetic composition comprising a ternary lipid association for controlling dryness of the skin” (PIERRE FABRE DERMO-COSMETIQUE, priority 2013, dated 2017).

The subject of one assay is isolated stratum corneum. To be noted: Levi et al., Int J Cosmet Sci. 2010; 32: 276-93; cited from earlier work.
Assay [1] concerns isolated stratum corneum (SC) from human skin explants. Put plainly: Mechanical stress within isolated SC subjected to dehydration stress in an environmental chamber (substrate curvature). The text has this: These elements led the Applicant to use an in vitro model of isolated SC to study changes in mechanical properties as a function of hydration level. Measuring skin tension makes it possible to define a relationship between skin dryness and skin stress, and the appearance of cracks. Moreover, the use of this model makes it possible to know with a high degree of accuracy the effect of active agents on these mechanical measurements and, consequently, on the hydration state of the stratum corneum. (K. Levi, R. J. Weber, J. Q. Do and R. H. Dauskardt. International Journal of Cosmetic Science, 2010, 32, 276-293 Drying stress and damage processes in human stratum corneum) (K. Levi and R. H. Dauskardt. International Journal of Cosmetic Science, 2010, 32, 294-298 Application of substrate curvature method to differentiate drying stresses in topical coatings and human stratum corneum).
The mechanical approach used here consists in measuring the mechanical stress produced within SC that has been isolated and subjected to dehydration stress in an environmental chamber.
The SC specimen—from human skin explants—was isolated by enzymatic digestion. It was placed on a borosilicate slide to which it naturally adheres.
The SC, initially 100% hydrated, is then placed in an atmosphere with 7% air humidity. The SC then undergoes a progressive dehydration, during which measurements of SC tension are taken every 15 minutes for 8 hours using a stress measurement device. […] Given the differences that exist between its mechanical properties and those of the support (the slide), the latter bends. By means of this radius of curvature, measured with a laser interferometer, it is then possible to calculate the state of tension/stress from the Stoney equation. The initial data correspond to a measurement of the variation of the curvature of the unit (borosilicate slide+SC). It is possible to calculate the biomechanical stress parameters of the SC, such as tension, from knowledge of the biomechanical properties of the borosilicate slide, its thickness, and the thickness of the SC (see methodology FIG. 1; and bibliographical reference K. Levi, et al., IJCS 2010).
This first kinetics study makes it possible to know the behavior of untreated SC. Next, the unit (SC+slide) is returned to 100% air humidity for 2 hours and then incubated in the various treatments for 5 minutes. A […] film is deposited: using a spiral filmograph for liquid emollients and a slide for creams. At the end of this period the unit is again placed in 7% air humidity for the study of dehydration kinetics until stabilization of the measurements (generally 8 to 12 hours). […]

isocetyl stearoyl stearate [compound 1]: in the assay with isolated stratum corneum, the “efficacy with respect to the shrinking of the stratum corneum specimen desiccated by a lack of moisture” value is on record as “good efficacy”. Also, the “maximum stress within the SC” value in assay [1] (SC pretreated 5 minutes, then 7% air humidity, compared with untreated control, FIG. 3) was “momentarily greater than the control”. Further, the “time to reach minimum stress plateau” value in assay [1] (after the stress starts to fall, 7% air humidity, FIG. 3) is 2 h. For the same substance, the “time after which the stress falls” value in assay [1] (hours of dehydration at 7% air humidity, FIG. 3) amounted to 3 h. For the same substance, the “shrinking of the skin induced by drying stress” value in assay [1] (topical application, during the first 4 hours, FIG. 1) is listed as “increases”.
